{"source": "patent US12622910B2", "about": "“Inhibitors of Bruton's tyrosine kinase and methods of their use” (Janssen Pharmaceutica NV, priority 2021, dated 2026)", "assay": "Phase 1 first-in-human study, plasma pharmacokinetics", "type": "in vivo", "conditions": "for half-life / Tmax / AUC(0-inf) / Cmax / AUC(0-t): male, human, plasma, po", "description": "Safety, tolerability, PK, and BTKO were assessed for six doses of compound of Formula (III) oral solution (4, 12, 36, 100, 200, 400 mg) in participants under fasted conditions. The SAD part comprised 10 cohorts of 8 participants each (FIG. 1). In each cohort receiving compound of Formula (III) oral solution (Cohorts 1-9), 6 participants were randomized to receive compound of Formula (III) and 2 to receive placebo. All participants in Cohort 10 received compound of Formula (III) as an oral capsule. All 10 cohorts included 2 sentinel participants who were dosed ˜24 hours prior to the rest of the cohort. In cohorts receiving compound of Formula (III) oral solution, 1 sentinel participant received compound of Formula (III) and the other received placebo.\nSix male escalating dose cohorts received a single oral dose of 4, 12, 36, 100, 200, 400 mg compound of Formula (III) or placebo solution under fasted conditions. Gender effects were assessed in 2 female cohorts whose participants received either a 36 or 100 mg dose of compound of Formula (III) or placebo as an oral solution under fasted conditions. Food effects were evaluated in a male cohort receiving compound of Formula (III) 100 mg or placebo as an oral solution after a high-fat breakfast.\nSafety, tolerability, and PK of a solid dose formulation of compound of Formula (III) were assessed in an additional male cohort (Cohort 10) that received 3×35 mg (105 mg) of compound of Formula (III) in the fasted state. Since all the participants received the same dose of compound of Formula (III), this cohort was not blinded.\nSafety, tolerability, PK, and BTKO following multiple compound of Formula (III) doses were evaluated in 3 dose escalation cohorts with a total of 18 participants (males: 9, females: 9) receiving active study drug. In each cohort, 3 males and 3 females were randomized to receive 36 mg once-daily (QD), 100 mg QD, or 200 mg QD compound of Formula (III) oral solution and 3 participants (males: 2; female: 1) to receive placebo. Two male participants in each cohort served as sentinel participants: one received compound of Formula (III) and other received placebo ˜48 hours prior to other participants in the cohort. All safety and tolerability data (through the follow-up visit), PK data (through at least 24 hours after last dose administration), and all available PD data were reviewed from each cohort before a decision was made to dose escalate.\nSample collection—For the PK assessment of compound of Formula (III), venous blood samples (2 to 4 mL each) were collected predose and at 15 min, 0.5, 1, 1.5, 2, 2.5, 3, 4, 6, 8, 12, 24, 36, 48, and 72 hours post-dose in Part 1. In Part 2, samples were collected predose and at 15 min, 0.5, 1, 1.5, 2, 2.5, 3, 4, 6, 8, 12 hours post-dose on day 1, predose and 1 hour post-dose on days 2-9, and predose and at 15 min, 0.5, 1, 1.5, 2, 2.5, 3, 4, 6, 8, 12, 24, 48, and 72 hours after the last dose on day 10. Plasma samples were analyzed to determine concentrations of compound of Formula (III) using a scientific validated, specific, and sensitive liquid chromatography-mass spectrometry (LC-MS/MS) method.\nThe PK analysis for the compound of Formula (III) samples was performed using a non-compartmental method with validated Phoenix® WinNonlin® (version 8.0, Certara L.P.).", "key": {"[1]": {"conditions": "36 mg, single 36 mg oral solution, male fasted"}, "[2]": {"conditions": "100 mg, single 100 mg oral solution, male fasted"}, "[3]": {"conditions": "100 mg, single 100 mg oral solution, male fed (high-fat breakfast)"}, "[4]": {"conditions": "105 mg, single 105 mg (3 × 35 mg) oral capsule, male fasted"}, "[5]": {"conditions": "200 mg, single 200 mg oral solution, male fasted"}, "[6]": {"conditions": "400 mg, single 400 mg oral solution, male fasted"}, "[7]": {"conditions": "single 12 mg oral solution, male fasted"}, "[8]": {"conditions": "single 100 mg oral solution, female fasted"}}, "note": "Read-outs that look alike come from different tables or passages of the source. Marks after values point to notes of the source that are not given here."}
{"smiles": "C=CC(=O)N[C@H]1CCC[C@H]1NC(=O)c1sc2nccc3c2c1NC(=O)N3c1cnc(CC(C)C)cc1C", "note": "(atropisomer, axis not shown) [compound of Formula (III), N-((1R,2S)-2-Acrylamidocyclopentyl)-5-(S)-(6-isobutyl-4-methylpyridin-3-yl)-4-oxo-4,5-dihydro-3H-1-thia-3,5,8-triazaacenaphthylene-2-carboxamide]", "values": [{"measurement": "half-life", "setting": "12 mg, single 12 mg oral solution, male fasted, read-out: t1/2, λz (converted)", "value": 1.6, "unit": "h"}, {"measurement": "Tmax", "setting": "12 mg, single 12 mg oral solution, male fasted, read-out: tmax, median (min-max)", "value": 1, "unit": "h"}, {"measurement": "AUC(0-inf)", "setting": "[1]", "value": 644, "unit": "ng·h/mL"}, {"measurement": "Cmax", "setting": "[1]", "value": 200, "unit": "ng/mL"}, {"measurement": "AUC(0-t)", "setting": "36 mg, single 36 mg oral solution, male fasted, read-out: AUC0-24 h", "value": 649, "unit": "ng·h/mL"}, {"measurement": "AUC(0-t)", "setting": "36 mg, single 36 mg oral solution, male fasted, read-out: AUClast", "value": 649, "unit": "ng·h/mL"}, {"measurement": "half-life", "setting": "36 mg, single 36 mg oral solution, male fasted, read-out: t1/2, dom (converted)", "value": 1.6, "unit": "h"}, {"measurement": "half-life", "setting": "36 mg, single 36 mg oral solution, male fasted, read-out: t1/2, λz (converted)", "value": 2.1, "unit": "h"}, {"measurement": "Tmax", "setting": "36 mg, single 36 mg oral solution, male fasted, read-out: tmax, median (min-max)", "value": 1, "unit": "h"}, {"measurement": "AUC(0-inf)", "setting": "[2]", "value": 20.6, "unit": "ng·h/mL"}, {"measurement": "Cmax", "setting": "[2]", "value": 923, "unit": "ng/mL"}, {"measurement": "AUC(0-t)", "setting": "100 mg, single 100 mg oral solution, male fasted, read-out: AUC0-24 h", "value": 2140, "unit": "ng·h/mL"}, {"measurement": "AUC(0-t)", "setting": "100 mg, single 100 mg oral solution, male fasted, read-out: AUClast", "value": 2140, "unit": "ng·h/mL"}, {"measurement": "half-life", "setting": "100 mg, single 100 mg oral solution, male fasted, read-out: t1/2, dom (converted)", "value": 1.9, "unit": "h"}, {"measurement": "half-life", "setting": "100 mg, single 100 mg oral solution, male fasted, read-out: t1/2, λz (converted)", "value": 5, "unit": "h"}, {"measurement": "Tmax", "setting": "100 mg, single 100 mg oral solution, male fasted, read-out: tmax, median (min-max)", "value": 0.5, "unit": "h"}, {"measurement": "AUC(0-inf)", "setting": "[3]", "value": 1760, "unit": "ng·h/mL"}, {"measurement": "Cmax", "setting": "[3]", "value": 277, "unit": "ng/mL"}, {"measurement": "AUC(0-t)", "setting": "100 mg, single 100 mg oral solution, male fed (high-fat breakfast), read-out: AUC0-24 h", "value": 1720, "unit": "ng·h/mL"}, {"measurement": "AUC(0-t)", "setting": "100 mg, single 100 mg oral solution, male fed (high-fat breakfast), read-out: AUClast", "value": 1750, "unit": "ng·h/mL"}, {"measurement": "half-life", "setting": "100 mg, single 100 mg oral solution, male fed (high-fat breakfast), read-out: t1/2, dom (converted)", "value": 2, "unit": "h"}, {"measurement": "half-life", "setting": "100 mg, single 100 mg oral solution, male fed (high-fat breakfast), read-out: t1/2, λz (converted)", "value": 10.8, "unit": "h"}, {"measurement": "Tmax", "setting": "100 mg, single 100 mg oral solution, male fed (high-fat breakfast), read-out: tmax, median (min-max)", "value": 2.5, "unit": "h"}, {"measurement": "AUC(0-inf)", "setting": "[4]", "value": 1500, "unit": "ng·h/mL"}, {"measurement": "Cmax", "setting": "[4]", "value": 345, "unit": "ng/mL"}, {"measurement": "AUC(0-t)", "setting": "105 mg, single 105 mg (3 × 35 mg) oral capsule, male fasted, read-out: AUC0-24 h", "value": 1320, "unit": "ng·h/mL"}, {"measurement": "AUC(0-t)", "setting": "105 mg, single 105 mg (3 × 35 mg) oral capsule, male fasted, read-out: AUClast", "value": 1450, "unit": "ng·h/mL"}, {"measurement": "half-life", "setting": "105 mg, single 105 mg (3 × 35 mg) oral capsule, male fasted, read-out: t1/2, dom (converted)", "value": 1.9, "unit": "h"}, {"measurement": "half-life", "setting": "105 mg, single 105 mg (3 × 35 mg) oral capsule, male fasted, read-out: t1/2, λz (converted)", "value": 14.2, "unit": "h"}, {"measurement": "Tmax", "setting": "105 mg, single 105 mg (3 × 35 mg) oral capsule, male fasted, read-out: tmax, median (min-max)", "value": 1.5, "unit": "h"}, {"measurement": "AUC(0-inf)", "setting": "[5]", "value": 2780, "unit": "ng·h/mL"}, {"measurement": "Cmax", "setting": "[5]", "value": 1210, "unit": "ng/mL"}, {"measurement": "AUC(0-t)", "setting": "200 mg, single 200 mg oral solution, male fasted, read-out: AUC0-24 h", "value": 2750, "unit": "ng·h/mL"}, {"measurement": "AUC(0-t)", "setting": "200 mg, single 200 mg oral solution, male fasted, read-out: AUClast", "value": 277, "unit": "ng·h/mL"}, {"measurement": "half-life", "setting": "200 mg, single 200 mg oral solution, male fasted, read-out: t1/2, dom (converted)", "value": 1.8, "unit": "h"}, {"measurement": "half-life", "setting": "200 mg, single 200 mg oral solution, male fasted, read-out: t1/2, λz (converted)", "value": 12.9, "unit": "h"}, {"measurement": "Tmax", "setting": "200 mg, single 200 mg oral solution, male fasted, read-out: tmax, median (min-max)", "value": 1, "unit": "h"}, {"measurement": "AUC(0-inf)", "setting": "[6]", "value": 4200, "unit": "ng·h/mL"}, {"measurement": "Cmax", "setting": "[6]", "value": 1920, "unit": "ng/mL"}, {"measurement": "AUC(0-t)", "setting": "400 mg, single 400 mg oral solution, male fasted, read-out: AUC0-24 h", "value": 3700, "unit": "ng·h/mL"}, {"measurement": "AUC(0-t)", "setting": "400 mg, single 400 mg oral solution, male fasted, read-out: AUClast", "value": 3830, "unit": "ng·h/mL"}, {"measurement": "half-life", "setting": "400 mg, single 400 mg oral solution, male fasted, read-out: t1/2, dom (converted)", "value": 2.2, "unit": "h"}, {"measurement": "half-life", "setting": "400 mg, single 400 mg oral solution, male fasted, read-out: t1/2, λz (converted)", "value": 13.2, "unit": "h"}, {"measurement": "Tmax", "setting": "400 mg, single 400 mg oral solution, male fasted, read-out: tmax, median (min-max)", "value": 0.75, "unit": "h"}, {"measurement": "half-life", "setting": "single 4 to 400 mg oral solution, male fasted, read-out: mean t1/2, dom across doses", "value": "1.5 to 2.2", "unit": "h"}, {"measurement": "half-life", "setting": "single 4 to 400 mg oral solution, male fasted, read-out: mean t1/2, λz across doses", "value": "1.6 to 13.2", "unit": "h"}, {"measurement": "Tmax", "setting": "single 4 to 400 mg oral solution, male fasted, read-out: median tmax across doses", "value": "0.5 to 1", "unit": "h"}, {"measurement": "AUC∞/Dose", "setting": "single 4 mg oral solution, male fasted", "value": "38.9 (12.5) h · ng/mL/mg"}, {"measurement": "AUC∞/Dose", "setting": "[7]", "value": "26.4 (9.07) h · ng/mL/mg"}, {"measurement": "Cmax/Dose", "setting": "[7]", "value": 7.33, "unit": "ng/mL"}, {"measurement": "mean Cmax and AUCs, females higher than males by", "setting": "single 36 mg fasted", "value": "17-27%"}, {"measurement": "AUC∞/Dose", "setting": "single 36 mg oral solution, female fasted", "value": "1.9 (0.5) h · ng/mL/mg"}, {"measurement": "AUC∞/Dose", "setting": "single 36 mg oral solution, male fasted", "value": "17.9 (6.64) h · ng/mL/mg"}, {"measurement": "mean Cmax and AUCs, females lower than males by", "setting": "single 100 mg fasted", "value": "30-35%"}, {"measurement": "AUC∞/Dose", "setting": "[8]", "value": "13.4 (4.60) h · ng/mL/mg"}, {"measurement": "t1/2, λz", "setting": "[8]", "value": "11.67 (7.8)^c h"}, {"measurement": "AUC∞/Dose", "setting": "single 100 mg oral solution, male fasted", "value": "20.6 (7.60) h · ng/mL/mg"}, {"measurement": "AUC∞/Dose", "setting": "single 100 mg oral solution, male fed (high-fat breakfast)", "value": "17.6 (4.20) h · ng/mL/mg"}, {"measurement": "Cmax lowered by high-fat meal", "setting": "single 100 mg, fed vs fasted", "value": "approximately 70%"}, {"measurement": "AUC∞/Dose", "setting": "single 105 mg (3 × 35 mg) oral capsule, male fasted", "value": "14.3 (7.59) h · ng/mL/mg"}, {"measurement": "AUC∞/Dose", "setting": "single 200 mg oral solution, male fasted", "value": "13.9 (3.80) h · ng/mL/mg"}, {"measurement": "AUC∞/Dose", "setting": "single 400 mg oral solution, male fasted", "value": "9.11 (4.68) h · ng/mL/mg"}]}
